In data set [1] the target is T1, hNav1.2 (Homo sapiens, UniProt Q99250).
T1 construct: host or cells: Xenopus oocytes (cRNA injection)
Put plainly: Two-electrode voltage-clamp recording of hNav1.2 gating in Xenopus oocytes. Type of data set: cell-based. Conditions: for Activation (V1/2): hNav1.2, 100 μM drug, DMSO control −31.7 ± 1.2 mV; for Inactivation (V1/2): hNav1.2, steady-state inactivation, 100 μM drug, DMSO control −59.7 ± 0.4 mV.

The subject of data set [2] is picrotoxin-induced seizures in male Crl:CF1 mice. Description: Picrotoxin seizure induction. The format is in vivo, mouse. The procedure:
(§1) Animal husbandry and drug administration. Male Crl:CF1 mice (10-12 weeks old, Charles River) were housed under a 12 hour light-dark cycle with free access to food and water and all experiments were carried out between 10 am and 4 pm. 1-[phenyl-methyl]-1H-1,2,3-triazole-4-carboxamide-5-methyl (Compound B) (Sigma Aldrich) was suspended in a 40% solution of cyclodextrin (Sigma Aldrich) in sterile saline (0.9%) and 15 minutes prior to each seizure induction paradigm, 75 mg/kg of compound B was administered via intraperitoneal injection (ip) injection. Vehicle treated animals were similarly administrated 40% cyclodextrin and served as the controls for each experiment. The Emory University Institutional Animal Care and Use Committee approved all experimental protocols involving mice.
Seizure induction paradigms and analyses. Picrotoxin seizure induction—15 minutes prior to i.p. injection of picrotoxin (10 mg/kg, Sigma Aldrich), mice were administered vehicle or compound B (n=12 per group). Latencies to the first myoclonic jerk, forelimb clonus, and generalized tonic-clonic seizure were compared between compound B and vehicle-treated mice. The myoclonic jerk is characterized by a sudden jerk of the upper body whereas forelimb clonus involves rapid movement of the forelimbs for at least 5s. Finally, the generalized tonic-clonic seizure involves the loss of postural control with rapid movement of the limbs for at least 5s.
(§2) Statistical analysis. A Student's t-test was used to identify statistically significant differences in latencies between vehicle- and compound B-treated groups for each seizure phenotype following administration of flurothyl and picrotoxin. […] All data are presented as the mean±s.e.m.; p values<0.05 were considered significant.

Data set [3] deals with rat hippocampal neurons. Put plainly: Action potential threshold recordings in hippocampal neurons. Type of data set: cell-based. Conditions: 100 μM Compound B. The method, then:
Action potential threshold recordings in hippocampal neurons. Hippocampal neurons were dissected from Sprague Dawley rat embryos at embryonic day 18. Cells were treated with papain (Worthington Biochemical), dissociated with a pipette and plated over coverslips coated with collagen (Life Technologies) and poly-D-Lysine (Sigma-Aldrich). Astrocyte beds were prepared at a density of 80,000 cells/ml and cultured in DMEM (Life Technologies) with 10% Fetal Bovine Serum, 6 mM glutamine for 14 days in 5% CO2 at 37° C. Total medium was changed every week. Neurons were plated over confluent astrocyte beds at a density of 150,000 cells/ml and cultured for 3 weeks in Neurobasal media (Life Technologies) supplemented with B27 and 2 mM glutaMAX. Half of the media was changed every 3-4 days. Cells were treated for 3 hours with compound B in 0.3% DMSO or control (media containing 0.3% DMSO) before recording. Coverslips were transferred to a chamber perfused at 2 ml/minute at 32° C. with ACSF containing (in mM): 140 NaCl, 5 KCl, 2 CaCl2, 2 MgCl2, 10 HEPES, and 10 Glucose (pH 7.3 adjusted with NaOH). […] Action potential thresholds were measured by a series of 100 ms, 10 pA depolarizing current injections. At the minimal current injection needed to elicit an action potential, firing threshold was determined by calculating the potential at which the rate of rise crossed 40 V/s, using AxoGraph X software. […]

Data set [4] concerns the target T2, α1/β2/γ2 GABAA receptor (Homo sapiens, UniProt P14867+P18507+P47870).
T2 construct: expressed in transfected cells; host or cells: oocytes
Put plainly: GABAA receptor activation in oocytes. Type of data set: cell-based. Conditions: 100 μM, oocytes at −70 mV; 5 μM muscimol as positive control. The source says:
Oocytes were kept at −70 mV throughout the experiment.

In data set [5] the target is T3, hNav1.3 (Homo sapiens, UniProt Q9NY46).
T3 construct: host or cells: Xenopus oocytes (cRNA injection)
Put plainly: Two-electrode voltage-clamp recording of hNav1.3 gating in Xenopus oocytes. The format is cell-based. The note with it: for Activation (V1/2): hNav1.3, 100 μM drug, DMSO control −24.7 ± 1.6 mV; for Inactivation (V1/2): hNav1.3, steady-state inactivation, 100 μM drug, DMSO control −52.8 ± 0.9 mV. For orientation: Two-electrode voltage clamp is typically applied to oocytes expressing channels or transporters.

Data set [6] concerns the target T4, hNav1.6 (Homo sapiens, UniProt Q9UQD0).
T4 construct: host or cells: Xenopus oocytes (cRNA injection)
Description: Two-electrode voltage-clamp recording of hNav1.6 gating in Xenopus oocytes. Type of data set: cell-based. Conditions: for Activation (V1/2): hNav1.6, 100 μM drug, DMSO control −26.7 ± 1.1 mV; for Inactivation (V1/2): hNav1.6, steady-state inactivation, 100 μM drug, DMSO control −65.1 ± 0.8 mV.

The target of data set [7] is T5, hNav1.1 (Homo sapiens, UniProt P35498).
T5 construct: host or cells: Xenopus oocytes (cRNA injection)
Put plainly: Two-electrode voltage-clamp recording of hNav1.1 gating in Xenopus oocytes. The format is cell-based. The note with it: for effect on hNav1.1 persistent current / effect on hNav1.1 opening (G-V relationship): 100 μM; for effect on hNav1.1 persistent current: analyzed at the end of a 50 ms test pulse; for effect on hNav1.1 opening (G-V relationship): significance at p<0.005; for Activation (V1/2): hNav1.1 + β1 in Xenopus oocytes, ≤1% DMSO, DMSO control −38.2 ± 1.9 mV; for Activation (V1/2) / Inactivation (V1/2): 100 μM drug; for Inactivation (V1/2): hNav1.1, steady-state inactivation, DMSO control −49.4 ± 0.3 mV.

In data set [8] the test system is flurothyl-induced seizures in male Crl:CF1 mice. Description: Flurothyl seizure induction. The format is in vivo, mouse. Conditions: 75 mg/kg ip. The procedure: as §1
Flurothyl Seizure induction. Latencies to flurothyl-induced seizures were determined as previously described (Neurobiol Dis 49C, 211-220 (2012)). Briefly, flurothyl (2,2,2-trifluroethylether; Sigma Aldrich) was dispensed at a rate of 20 μl/minute into a Plexiglas chamber and latencies to three behavioral phenotypes were compared between vehicle-treated and compound B-treated (75 mg/kg) mice (n=12 per group): 1) the first myoclonic jerk, 2) a generalized tonic-clonic seizure, and 3) a generalized tonic-clonic seizure with tonic extension. Similar to picrotoxin-mediated seizure induction, the myoclonic jerk is the first observable behavioral phenotype followed by the generalized tonic-clonic seizure which is characterized by a loss of postural control with rapid movement of all four limbs for at least 5s. Lastly, the generalized tonic-clonic seizure with tonic hind limb extension involves the loss of postural control and rapid movement of all four limbs followed by downward extension of the limbs parallel to the body.
as §2

The subject of data set [9] is 6 Hz psychomotor seizures in male Crl:CF1 mice. Put plainly: 6 Hz psychomotor seizure induction. The format is in vivo, mouse. Conditions: 17 mA. The procedure:
as §1
6 Hz psychomotor seizure induction. Topical anesthetic (0.5% tetracaine hydrochloride ophthalmic solution) was applied to the cornea 30 minutes before testing. Fifteen minutes prior to seizure induction, mice were administrated vehicle or compound B (n=12 per group). Each mouse was manually restrained and corneal stimulation (0.2 ms pulse, 6 Hz, 3s) was performed at a current intensity of 17 mA (ECT Unit 57800; Ugo Basile, Comerio Italy). […] The mice were randomized into two groups and in the first trial one group received the vehicle whereas the other was administered compound B. The second trial was performed one week later with each group receiving the opposite treatment.
as §2

For data set [10] the following is noted: cited from earlier work.

T2 sequence (P14867 28-456): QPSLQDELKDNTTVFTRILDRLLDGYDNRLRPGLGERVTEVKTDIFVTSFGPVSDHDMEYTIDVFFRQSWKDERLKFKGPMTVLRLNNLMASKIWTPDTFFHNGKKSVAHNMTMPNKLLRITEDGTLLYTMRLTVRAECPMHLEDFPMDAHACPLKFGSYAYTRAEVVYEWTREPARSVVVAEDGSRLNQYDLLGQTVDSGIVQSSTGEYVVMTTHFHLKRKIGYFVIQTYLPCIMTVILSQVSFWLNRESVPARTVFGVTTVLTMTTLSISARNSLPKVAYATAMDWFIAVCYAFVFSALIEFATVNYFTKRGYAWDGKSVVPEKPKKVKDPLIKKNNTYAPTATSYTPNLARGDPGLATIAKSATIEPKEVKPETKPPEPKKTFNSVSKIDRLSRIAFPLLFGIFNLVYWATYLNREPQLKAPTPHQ
T2 sequence (P47870 25-512 limits assumed): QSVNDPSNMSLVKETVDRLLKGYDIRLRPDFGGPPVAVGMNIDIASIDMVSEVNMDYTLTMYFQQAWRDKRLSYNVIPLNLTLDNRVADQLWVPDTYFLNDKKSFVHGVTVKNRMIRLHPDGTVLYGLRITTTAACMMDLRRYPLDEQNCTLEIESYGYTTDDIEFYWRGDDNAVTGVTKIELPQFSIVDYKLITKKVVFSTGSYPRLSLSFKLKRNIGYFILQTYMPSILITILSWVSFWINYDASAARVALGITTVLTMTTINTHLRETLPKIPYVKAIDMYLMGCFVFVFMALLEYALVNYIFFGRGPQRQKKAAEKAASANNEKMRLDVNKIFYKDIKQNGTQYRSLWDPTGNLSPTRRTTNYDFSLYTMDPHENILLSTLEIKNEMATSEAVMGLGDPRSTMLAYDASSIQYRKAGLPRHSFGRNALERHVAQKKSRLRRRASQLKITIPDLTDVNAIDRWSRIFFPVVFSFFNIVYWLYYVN
T2 sequence (P18507 40-475): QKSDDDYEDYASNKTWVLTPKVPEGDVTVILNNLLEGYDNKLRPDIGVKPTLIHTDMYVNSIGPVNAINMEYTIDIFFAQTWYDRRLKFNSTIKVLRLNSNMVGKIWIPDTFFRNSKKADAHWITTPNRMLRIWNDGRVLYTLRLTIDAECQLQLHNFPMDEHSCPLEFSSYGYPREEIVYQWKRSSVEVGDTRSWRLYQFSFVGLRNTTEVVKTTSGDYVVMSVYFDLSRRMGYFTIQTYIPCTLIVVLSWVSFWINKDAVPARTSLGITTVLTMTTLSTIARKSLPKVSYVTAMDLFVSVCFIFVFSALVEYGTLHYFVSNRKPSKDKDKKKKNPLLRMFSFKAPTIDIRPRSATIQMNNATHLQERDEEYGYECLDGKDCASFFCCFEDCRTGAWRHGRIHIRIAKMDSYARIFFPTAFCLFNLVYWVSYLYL

Turning to `Cc1c(C(N)=O)nnn1Cc1ccccc1` [Compound B, 1-[phenyl-methyl]-1H-1,2,3-Triazole-4-carboxamide-5-methyl], the “Activation (V1/2)” value is listed as −23.6 ± 1.1 mV in [1], −25.8 ± 1.4 mV in [5], −23.8 ± 1.9 mV in data set [6] and −27.4 ± 1.0 mV in data set [7]. Moreover, the “Inactivation (V1/2)” value in data set [1] is recorded as −53.6 ± 1.2 mV; in [5] it was −50.0 ± 0.8 mV; in data set [6] it was −62.6 ± 0.7 mV; in [7] it was −49.4 ± 0.3 mV. The “average latency to the first generalized tonic-clonic seizure (GTCS)” value in data set [2] (picrotoxin 10 mg/kg, Compound B 75 mg/kg ip 15 min before, vehicle 1006±106 s) is 1693 ± 315 s. For the same compound, in data set [2] (picrotoxin, 75 mg/kg ip), the “frequency of the behavioral seizures vs vehicle” value is given as “no difference”. Also, the “increase of average latency to first GTCS vs vehicle” value in [2] (picrotoxin, 75 mg/kg ip, p=0.03) is reported as 41%; in data set [8] (p<0.0001), 43%. Moreover, the “average latency to forelimb clonus (FC) vs vehicle” value in [2] (picrotoxin, 75 mg/kg ip, p=0.3) is recorded as “no statistically significant differences”. Also, the “average latency to the first myoclonic jerk (MJ) vs vehicle” value in [2] (picrotoxin, 75 mg/kg ip, p=0.4) is reported as “no statistically significant differences”. For the same compound, in [3] (potential at which rate of rise crosses 40 V/s, control −43.3±2.4 mV), the “average action potential (firing) threshold” value was −27.8±1.6 mV. Moreover, the “current injection needed to elicit an action potential” value in data set [3] (control 20 pA) amounted to 80 pA. Also, the “activation of α1/β2/γ2 GABAA receptor (inward currents)” value in data set [4] was “do not activate”. Besides, the “effect on hNav1.1 persistent current” value in data set [7] was “neither of these compounds influences”; in data set [7] (listed as compound B) it was “did not alter”. In addition, the “effect on hNav1.1 opening (G-V relationship)” value (shortened to “effect on hNav1.1 opening”) in [7] was “clearly inhibit hNav1.1 opening”. In addition, the “depolarizing shift in channel activation voltage” value in data set [7] (hNav1.1, 100 μM) was “~+11 mV”. Besides, the “Entry into SI (t)” value in [7] (hNav1.1 slow inactivation, time-dependence of entry, DMSO 5.6 ± 0.3 s) is given as 5.5 ± 0.4 s. Further, the “Voltage-dependence of SI (V), V1/2” value in [7] (hNav1.1 slow inactivation, DMSO −43.7 ± 1.6 mV) was −43.2 ± 1.3 mV. Further, in [8] (p<0.0001), the “increase of average latency to GTCS+ vs vehicle” value is 56%. In [8] (p=0.6), the “average latency to the MJ vs vehicle” value is given as “comparable”. Besides, in [8] (vehicle 281±19 s), the “average latency to the first GTCS” value came out at 652 ± 48 s. Moreover, the “average latency to GTCS with hind limb extension (GTCS+)” value in data set [8] (vehicle 652±38 s) is 1155 ± 89 s. Also, the “animals exhibiting behavioral seizures” value in data set [9] (75 mg/kg ip, n=7/24, vehicle 92%) worked out at 29%. Further, the “seizure severity (modified Racine scale) vs vehicle” value in data set [9] (p<0.0001) is recorded as “dramatically less severe”. The “reduction in the number of mice exhibiting seizures” value in data set [9] (vs vehicle, p<0.0001) is 63%.

`NC(=O)c1nnn(Cc2cccc(F)c2)c1N` [Compound A, 1-[(3-fluorophenyl)methyl]-1H-1,2,3-Triazole-4-carboxamide-5-amine]: in data set [7], the “effect on hNav1.1 persistent current” value was “neither of these compounds influences”, the “effect on hNav1.1 opening” value is reported as “clearly inhibit hNav1.1 opening”, the “Activation (V1/2)” value is −30.8 ± 1.0 mV and the “Inactivation (V1/2)” value is listed as −50.5 ± 1.2 mV.

For the compound `NC(=O)c1cn(Cc2c(F)cccc2F)nn1` [Rufinamide, 1-[(2,6-difluorophenyl)methyl]-1H-1,2,3-Triazole-4-carboxamide, reference compound], the “Activation (V1/2)” value is given as −29.5 ± 1.2 mV in data set [1], −24.5 ± 2.4 mV in data set [5], −28.1 ± 0.8 mV in data set [6] and −30.6 ± 0.9 mV in [7]. For the same compound, the “Inactivation (V1/2)” value in data set [1] is given as −57.7 ± 0.5 mV; in data set [5] it was −52.6 ± 1.6 mV; in data set [6], −60.0 ± 0.7 mV. Also, the “activation of α1/β2/γ2 GABAA receptor (inward currents)” value in data set [4] is on record as “do not activate”. Also, the “alteration of the midpoint of hNav1.6 channel availability” value in data set [6] (hNav1.6, 100 μM rufinamide) was “about +5 mV”. In addition, the “solubility in DMSO” value in [10] (DMSO) is “up to 9 mg/ml”. The solubility in water result in data set [10] (water) was “slightly soluble”. Moreover, the “effect on hNav1.1 persistent current” value in data set [7] was “did not alter”. In data set [7], the “effect on hNav1.1 opening” value was “dramatic depolarizing shift”.

Take `OCc1cn(Cc2cccc(F)c2)nn1` [Compound C, 1-[(3-fluorophenyl)methyl]-1H-1,2,3-Triazole-4-hydroxymethyl]: in data set [7], the “effect on hNav1.1 opening” value is “no longer affects hNav1.1 opening”, the “Activation (V1/2)” value was −38.4 ± 1.3 mV and the “Inactivation (V1/2)” value is reported as −49.2 ± 0.6 mV.

Consider `NC(=O)c1nnn(Cc2ccc(F)cc2)c1N` [Compound D, 1-[(4-fluorophenyl)methyl]-1H-1,2,3-Triazole-4-carboxamide-5-amine], for which, in data set [7], the “effect on hNav1.1 opening” value is given as “not significant”, the “Activation (V1/2)” value is given as −32.5 ± 2.3 mV and the “Inactivation (V1/2)” value is reported as −49.8 ± 1.6 mV.
